Assay results as given in paper PMC11259703, “A small-molecule allele-selective transcriptional inhibitor of the MIF immune susceptibility locus” (The Journal of Biological Chemistry, 2024).

Experiments:
[1] = target: T1, ICBP90 (UHRF1) (Homo sapiens, UniProt Q96T88); experiment: AlphaScreen inhibition of purified ICBP90 SRA domain binding to biotinylated MIF promoter CATT8 DNA; confirmed by EMSA dose response
T1 construct: SET and RING finger-associated (SRA) domain, amino acids 413 to 618 (ICBP90^413-618), C-terminal 6xHis
T1 sequence (Q96T88 413-618): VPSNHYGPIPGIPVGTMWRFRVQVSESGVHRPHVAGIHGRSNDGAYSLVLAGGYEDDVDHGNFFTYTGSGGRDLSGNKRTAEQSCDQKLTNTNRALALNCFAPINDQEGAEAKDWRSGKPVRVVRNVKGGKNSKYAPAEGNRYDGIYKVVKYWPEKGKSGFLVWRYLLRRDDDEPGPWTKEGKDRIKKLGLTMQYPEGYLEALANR

[2] = tested on: ICBP90 413-618 (SRA domain); experiment: AlphaScreen; conditions: IC50 of the small-molecule inhibitor CMFT, not a DNA affinity; EMSA: LightShift kit buffer, poly(dI-dC), 20 min at 22 C, 6% native PAGE; ELISA: 10 mM Tris-HCl pH 7.5, 50 mM KCl, 1 mM DTT; AlphaScreen: same plus 0.01% …

Molecule | IC50 [1] | IC50 [2]
COC(=O)c1ccc(O)c2nc3c(C=O)c(O)cc(O)c3nc12 [compound 3, 1-carbomethoxy-5-formyl-4,6,8-trihydroxyphenazine] | 490 nM | 
MIF promoter CATT8 (-794 CATT8), 5'-biotin |  | 490 nM
